Laboratory results reported in patent US20040009904A1, “APL immunoreactive peptides, conjugates thereof and methods of treatment for aPL antibody-mediated pathologies” (priority 1995, published 2004).
Values joined by “and” are separate entries in the source; they are usually repeats but may differ in a detail not shown here. Equal entries are not always repeated. Bridge positions count the residues as written; N and C are the ends. Peptide text beside a SMILES is read from it.

Assays:
ACA-6641 [1] = test: Phage-capture ELISA; type: binding, human; conditions: ACA-6641 screen
Description: The phage-capture ELISA consists of the following steps. Microtitration wells are coated with aPL antibody and phage clones are added as in the micropanning assay. Unbound phage are washed away and the amount of bound phage is quantitated using an enzyme-conjugated goat antiserum which binds the major coat protein of the phage. Phage screened using phage-capture ELISA react with many aPL antibodies and provide a strong signal in subsequent ELISA assays. This intermediate level of sensitivity allows for greater efficiency in the peptide synthesis effort since few micropanning-positive phage are phage-capture ELISA positive. As a result, peptides synthesized from positive phage-capture ELISA phage are generally immunoreactive.
AffACA-6641 was isolated from 4 mL of plasma taken from patient number 6641. AffACA-6641 (10 μg) was incubated with the pooled p-III phage libraries in a final volume of 100 μL as described previously. Following four rounds of biopanning, 45 clones from the 3rd and 4th rounds were tested by micropanning. Of the 45, 23 scored negative. The 3rd round phage yielded two clones that scored 4+, two that scored 3+ and two that scored 2+. From the 4th round, one clone scored 4+, one scored 3+ and three scored 2+. […] Four base DNA sequencing gave the following translated peptide sequence: […]

ACA-7005 = test: Competitive binding peptide ACA ELISA, cardiolipin/β2-GPI-coated plates; design: species or system human
Description: (§1) A variation of this assay uses microtitration plates coated with human β2-glycoprotein I/cardiolipin (β2-GPI/CL) instead of tetravalent peptide and tests the ability of monomeric peptides to block the binding of aPL antibody to the epitope(s) on β2-GPI/CL. In this assay, IgG-depleted human serum at an optimized concentration is used as a source of β2-GPI. The monomeric peptides at several concentrations are incubated with an optimized concentration of aPL antibody in a manner analogous to the assay which employs tetravalent peptide as a plate substrate. Following the incubation of aPL/peptide in (β2-GPI/CL) plates, antibody binding and the peptide concentration required for 50% inhibition is determined at half-maximal absorbance as in the tetravalent assay.
(§2) Peptide sequences for all five peptides immediately follow the table. All were tested using the competitive binding peptide ACA ELISA using CL/β2-GPI plates as described herein.
(§3) (B) Immulon I® 96-well, flat-bottom, polystyrene microtitration plates (Dynatech Laboratories, Inc., Chantilly, Va.) were coated with 30 μL/well of cardiolipin (CL, 50 μg; Sigma Chemical Co., St. Louis, Mo.) in ethanol. Two control wells received 30 μL ethanol only. After overnight evaporation at 4° C., each well was blocked with 200 μL of 5% (w/v) fish gelatin in PBS for 2 hours at RT.
(§4) The CL/β2-GPI microtitration plate was washed 5 times with TBS and 100 μL aliquots in duplicate from Eppendorf tubes #1, 2, 3, and 4 containing the antibody-peptide (or no peptide mixtures) were added to the wells. A volume of 100 μL from tube #4 was added to the duplicate control wells containing no cardiolipin. The microtitration plate was incubated for 1 hour at RT with agitation at 40 rpm in an orbital shaker (American Scientific, Rotator V), washed 5 times with TBS and then 100 μL of 1:1000 goat anti-human IgG alkaline phosphatase conjugate (Zymed, Cat No. 62-8422) in 0.5% (w/v) BSA-TBS was added. Following incubation for 1 hour at RT, the microtitration plate was again washed 5 times with TBS and the colorimetric enzyme detection developed by adding 100 μL of PMPP solution (7.8 g phenolphthalein monophosphate plus 69.5 g of 2-amino-2-methyl-1-propanol in 100 mL water stock solution diluted 1:26 with water). After 21 minutes, the reaction was stopped by adding 50 μL of 0.2 M Na2HPO4 (Mallinckrodt) to each well. Absorbance at 550 nm was read in a microplate reader (Bio-Tek Instruments, Model EL 311). The amount of peptide that inhibited ACA-6501 binding by 50%, the IC50, was calculated from the graph at the intersection of half-maximal absorbance with amount of peptide added.

ACA-7004 = test: as above; design: species or system human
Description: as §1, §2, §3, §4

ACA-6626 = test: as above; design: species or system human
Description: as §1, §2, §3, §4

ACA-6638 = test: as above; design: species or system human
Description: as §1, §2, §3, §4

ACA-6701 = test: as above; design: species or system human
Description: as §1, §2, §3, §4

ACA-6903 = test: as above; design: species or system human
Description: as §1, §2, §3, §4

ACA-6641 [2] = test: as above; design: species or system human
Description: as §1, §2, §3, §4

ACA-6644 = test: as above; design: species or system human
Description: as §1, §2, §3, §4

ACA-6501 = test: as above; design: species or system human
Outline: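 Monomeric peptides at several amounts were preincubated ~1 h at RT with ACA-6501 serum (final 1:400), then added to cardiolipin-coated, fish-gelatin-blocked plates with β2-GPI for 1 h at RT. Bound IgG was detected with alkaline phosphatase anti-human IgG and phenolphthalein monophosphate, read at 550 nm. IC50 was the peptide amount at half-maximal absorbance.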

ACA antibodies = test: Competitive binding peptide ACA ELISA, cardiolipin/β2-GPI-coated plates, panel of ACA antibodies (average); design: species or system human
Description: as §1, §2
As noted in Section I above, one synthetic peptide, 6641/3G3 was tested against several high titer ACA antisera. This peptide appeared to be crossreactive with the vast majority of ACA antisera tested as illustrated in FIG. 14.
as §3, §4

ACA = test: Structure Activity Relationship of the Crossreactive ACA Epitope (relative activity); type: binding, human; conditions: LJP 688 = 100
Description: Peptide 6641/3G3 (LJP 688) was subjected to a number of analyses. The analyses included truncation at both the N-terminus and the C-terminus, disulfide substitution, substitution of alanine and glycine for amino acids in positions 2 through 8, substitution of branched aliphatic amino acids in positions 2, 4, 5 and 8, substitution of amino acids affecting conformation of the peptide, including substitution of α-methyl amino acids, substitution of basic amino acids in position 7, substitution of D-amino acids in positions 2 through 9, and the substitution of N-α-methyl amino acids in positions 1 through 9.

ACA-6635 = test: Competitive binding peptide ACA ELISA, cardiolipin/β2-GPI-coated plates; design: species or system human; conditions: ACA serum 6635 RS
[3] = peptide 1 mg/mL, affinity purified antibody

SMILES: CC(C)C[C@@H]1NC(=O)[C@@H](NC(=O)[C@@H]2CCCN2C(=O)CNC(=O)[C@H](C)N)CSSC[C@@H](C(=O)N2CCC[C@H]2C(=O)NCC(=O)O)NC(=O)[C@H](CC(C)C)NC(=O)[C@H](CCCCN)NC(=O)CNC(=O)[C@H](CC(C)C)NC(=O)[C@H](C(C)C)NC(=O)CNC1=O [LJP 688, AGP-CLGVLGKLC-PG] (H-AGPCLGVLGKLCPG-OH; disulfide 4-12)
- result in the phage-capture ELISA (ACA-6641 [1]): strongly positive
- IC50 for peptide LJP 688 (ACA-7005; ACA serum 7005 RFL): 750 µg/mL
- Percent Inhibition of AffACA by Peptide Monomers, 7005 (ACA-7005; [3]): 95%
- IC50 for peptide LJP 688 (ACA-7004; ACA serum 7004 RFL): 670 µg/mL
- Percent Inhibition of AffACA by Peptide Monomers, 7004 (ACA-7004; [3]): 100%
- IC50 for peptide LJP 688 (ACA-6626; ACA serum 6626 RS): 1090 µg/mL
- Percent Inhibition of AffACA by Peptide Monomers, 6626 (ACA-6626; [3]): 100%
- IC50 for peptide LJP 688 (ACA-6638; ACA serum 6638 RS): 810 µg/mL
- Percent Inhibition of AffACA by Peptide Monomers, 6638 (ACA-6638; [3]): 100%
- IC50 for peptide LJP 688 (ACA-6701; ACA serum 6701 RS): 1070 µg/mL
- Percent Inhibition of AffACA by Peptide Monomers, 6701 (ACA-6701; [3]): 100%
- IC50 for peptide LJP 688 (ACA-6903; ACA serum 6903 RS): 800 µg/mL
- Percent Inhibition of AffACA by Peptide Monomers, 6903 (ACA-6903; [3]): 100%
- IC50 for peptide LJP 688 (ACA-6641 [2]; ACA serum 6641 RS): 890 µg/mL and 510 µg/mL
- Percent Inhibition of AffACA by Peptide Monomers, 6641 (ACA-6641 [2]; [3]): 93%
- IC50 for peptide LJP 688 (ACA-6644; ACA serum 6644 RS): 760 µg/mL
- Percent Inhibition of AffACA by Peptide Monomers, 6644 (ACA-6644; [3]): 100%
- IC50 for peptide LJP 688 (ACA-6501; ACA serum 6501 RS, RFL): 890 µg/mL and 1100 µg/mL
- with ACA 6501 150 ug/mL (ACA-6501; Optimization of Peptide 3G3, inf = no 50% inhibition): 850 µg/mL
- Percent Inhibition of AffACA by Peptide Monomers, 6501 (ACA-6501; [3]): 86%
- complete inhibition, cross-reactivity with 10 of 10 ACA antibodies (ACA antibodies; at 1.8 mg/mL): > 80%
- IC50 for peptide LJP 688, mean ± sd (ACA antibodies; mean over ten ACA sera): 860 ± 160 µg/mL
- Percent Inhibition of AffACA by Peptide Monomers, Ave. (ACA antibodies; peptide 1 mg/mL, average over nine antibodies): 97%
- Relative Activity (ACA): 100
- IC50 for peptide LJP 688 (ACA-6635): 1000 µg/mL
